The results in this text go back to PMC6472337, “L amino acid transporter structure and molecular bases for the asymmetry of substrate interaction” (Nature Communications, 2019).

Where “and” joins values, the source holds several entries; their conditions need not be identical. Equal values may be shown once. Read-outs that look alike come from different tables or passages of the source.

Broadly, the Km is the concentration of substrate that gives half-maximal velocity.

Format in all cases: biochemical, Carnobacterium sp AT7
For one test, the system named is BasC Y236F mutant. In words: [3H]L-alanine transport in BasC Y236F proteoliposomes. How it is done:
(§1) BasC was overexpressed as a C-terminal fusion with GFP in E. coli BL21 Star (DE3) cells grown in LB media. Single point mutations (Supplementary Table 2) were introduced using the QuikChange site-directed mutagenesis kit (Stratagene, San Diego, CA). All mutations were verified by sequencing. Expression was induced with 0.1 mM isopropyl-ß-D-thiogalactopyranoside at 37 °C for 22 h. Cells were harvested at 5000 × g for 15 min at 4 °C and stored at −80 °C until use. Cell pellets were thawed and resuspended in 20 mM Tris-Base, 150 mM NaCl, pH 7.4. Cells were pelleted again at 5000 × g for 15 min at 4 °C, resuspended in lysis buffer (20 mM Tris-Base, 350 mM NaCl, pH 7.4, 1 mM pefabloc and complete mini protease inhibitor cocktail) (Roche, Basel Switzerland) and then broken using a Cell Disruptor (four cycles at 20,000 psi; Constant Systems Ltd., Daventry, UK). Cell debris was removed by centrifugation (15,000 × g for 1 h at 4 °C), and the supernatant was subjected to ultracentrifugation (200,000 × g for 2 h at 4 °C). The membrane pellet was resuspended in 20 mM Tris-Base, 150 mM NaCl, pH 7.4 and 10% glycerol at a protein concentration of 8–12 mg ml^−1, and then frozen in liquid nitrogen and stored at −80 °C until use.
(§2) BasC-GFP protein was reconstituted in E. coli polar lipids (Sigma-Aldrich, Madrid, Spain), as previously described. Lipids were dried under N2 and suspended in reconstitution buffer (20 mM Tris-Base, 150 mM NaCl, pH 7.4). The suspension was sonicated to clarity and purified BasC protein was added to reach the desired protein to lipid ratio of 1:100 (w:w). To destabilize the liposomes, 1.25% ß-D-octylglucoside was added and the mixture was incubated on ice with occasional agitation for 5 min. DDM and ß-D-octylglucoside were removed by dialysis for 40 h at 4 °C against 100 volumes of dialysis buffer. Proteoliposome (PL) suspensions were frozen in liquid N2 and stored at −80 °C until use.
(§3) For uptake experiments, the desired intraliposomal amino acid concentration was added to the PL suspension, which was then subjected to three freeze/thaw cycles. The extraliposomal amino acid content was then removed by ultracentrifugation (100,000 × g for 1 h at 4 °C) and PLs were resuspended to one-third of the initial volume with reconstitution buffer. Amino acid uptake assays were initiated after mixing 10 μl of cold PLs with 180 μl of transport buffer (20 mM Tris-Base, 150 mM NaCl, pH 7.4 plus 0.5–1 µCi/180 µl of radiolabeled L-amino acid (Perkin Elmer, Waltham, MA)) supplemented with the unlabeled amino acid to the desired concentration. This mixture was then incubated at room temperature for the indicated periods. […] Filters were then washed twice with 2 ml of stop buffer and dried, and the trapped radioactivity was counted. Transport measured in PLs containing no amino acid was subtracted from each data point to calculate the net exchange. […] BasC protein in PLs was determined by Coomassie blue staining in SDS-PAGE gels compared with known amounts of BasC in DDM micelles, determined by BCA assay (Pierce, Rockford, IL) and loaded in the same gel.

A further test concerns BasC K154A mutant. As to the kind of experiment: [3H]L-alanine transport in BasC K154A proteoliposomes. Particulars: for V/[L-Ala]: Eadie-Hofstee, n=1-3 and mean. Set-up: V/[L-Ala]: unit not given here. The protocol:
as §1, §2, §3

In a further test the test system is BasC S282A mutant. In words: [3H]L-alanine transport in BasC S282A proteoliposomes. The settings on record: BasC S282A in PLs, WT = 100, n=1-3 and mean. The protocol: BasC was overexpressed as a C-terminal fusion with GFP in E. coli BL21 Star (DE3) cells grown in LB media. Single point mutations (Supplementary Table 2) were introduced using the QuikChange site-directed mutagenesis kit (Stratagene, San Diego, CA). All mutations were verified by sequencing. Expression was induced with 0.1 mM isopropyl-ß-D-thiogalactopyranoside at 37 °C for 22 h. Cells were harvested at 5000 × g for 15 min at 4 °C and stored at −80 °C until use. Cell pellets were thawed and resuspended in 20 mM Tris-Base, 150 mM NaCl, pH 7.4. […]
For uptake experiments, the desired intraliposomal amino acid concentration was added to the PL suspension, which was then subjected to three freeze/thaw cycles. […] Filters were then washed twice with 2 ml of stop buffer and dried, and the trapped radioactivity was counted. Transport measured in PLs containing no amino acid was subtracted from each data point to calculate the net exchange. […] BasC protein in PLs was determined by Coomassie blue staining in SDS-PAGE gels compared with known amounts of BasC in DDM micelles, determined by BCA assay (Pierce, Rockford, IL) and loaded in the same gel.

As for `C[C@H](N)C(=O)O` [L-alanine], the “10 µM [3H]L-alanine/4 mM L-alanine exchange normalized to wild-type” value was 116.03 and 123.34 and 111.98 and 142.02 in the test with BasC Y236F mutant (BasC Y236F in PLs, WT = 100, n=1-3 and mean); 124.06 and 127.02 and 133.54 in the test with BasC S282A mutant; 128.21 with BasC S282A mutant (mean). Moreover, the Vmax in the test on BasC Y236F mutant (Y236F) is listed as 4.58 ± 0.17 pmols L-alanine µg protein^−1 s^−1; in the test with BasC K154A mutant, 0.32 ± 0.04 pmols L-alanine µg protein^−1 s^−1. Also, in the test on BasC Y236F mutant (Y236F), the “increase of cytoplasmic apparent affinity vs. wild-type BasC” value is on record as ~ 4 fold. Moreover, the “saturation of the transporter at 4 mM intraliposomal L-alanine” value with BasC Y236F mutant (Y236F mutant) was “fully saturated”. Also, the increase in function entry in the test with BasC Y236F mutant (Y236F vs wild-type, extracellular 10 μM [3H]L-alanine against 4 mM intraliposomal L-alanine) is “about 20%”. The Km in the test on BasC Y236F mutant (extracellular side, Y236F, read-out: Km (o)) is 50.2 ± 3.44 µM; in the test with BasC Y236F mutant (intracellular side, Y236F, read-out: Km (i)), 560 ± 110 µM; in the test on BasC K154A mutant (extracellular side, 5 µM Nb74, read-out: Km (o)), 474 ± 42 µM; in the test with BasC K154A mutant (intracellular side, 5 µM Nb74, read-out: Km (i)), 2040 ± 370 µM. For the same compound, in the test on BasC K154A mutant, the “reduction of Vmax vs. wild-type” value is given as ~ 10 fold. Besides, the “reduction of extracellular apparent affinity vs. wild-type” value with BasC K154A mutant is on record as ~ 10 fold. In addition, the “V/[L-Ala]” value with BasC K154A mutant (extracellular side, L-alanine 100 μM) was 0.0007 and 0.0010 and 0.0009; in the test on BasC K154A mutant (extracellular side, L-alanine 500 μM) it was 0.000458 and 0.000473 and 0.0005.
